Laboratory results reported in ChEMBL document CHEMBL2163296 (J Med Chem, 2012).
The source made the active and inactive calls. No cut-off for these calls is given here.

Assays:
[1] = molecular target: T1, 5-hydroxytryptamine receptor 1F (Homo sapiens) (UniProt P30939); experiment: Binding affinity to 5HT1F receptor after 1.5 hrs by scintillation counter
T1 sequence (whole entry): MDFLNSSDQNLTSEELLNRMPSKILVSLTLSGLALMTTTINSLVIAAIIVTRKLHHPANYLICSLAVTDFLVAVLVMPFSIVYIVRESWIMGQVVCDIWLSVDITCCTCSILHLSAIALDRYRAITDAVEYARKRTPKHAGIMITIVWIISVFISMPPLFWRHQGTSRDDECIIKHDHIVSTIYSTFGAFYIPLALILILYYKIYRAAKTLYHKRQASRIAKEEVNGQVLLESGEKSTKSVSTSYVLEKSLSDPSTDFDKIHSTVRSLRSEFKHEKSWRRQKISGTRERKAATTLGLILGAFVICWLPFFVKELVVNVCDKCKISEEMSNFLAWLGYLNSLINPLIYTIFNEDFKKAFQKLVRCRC

[2] = molecular target: T2, 5-hydroxytryptamine receptor 2C (Homo sapiens, UniProt P28335)
T2 sequence (P28335 whole entry): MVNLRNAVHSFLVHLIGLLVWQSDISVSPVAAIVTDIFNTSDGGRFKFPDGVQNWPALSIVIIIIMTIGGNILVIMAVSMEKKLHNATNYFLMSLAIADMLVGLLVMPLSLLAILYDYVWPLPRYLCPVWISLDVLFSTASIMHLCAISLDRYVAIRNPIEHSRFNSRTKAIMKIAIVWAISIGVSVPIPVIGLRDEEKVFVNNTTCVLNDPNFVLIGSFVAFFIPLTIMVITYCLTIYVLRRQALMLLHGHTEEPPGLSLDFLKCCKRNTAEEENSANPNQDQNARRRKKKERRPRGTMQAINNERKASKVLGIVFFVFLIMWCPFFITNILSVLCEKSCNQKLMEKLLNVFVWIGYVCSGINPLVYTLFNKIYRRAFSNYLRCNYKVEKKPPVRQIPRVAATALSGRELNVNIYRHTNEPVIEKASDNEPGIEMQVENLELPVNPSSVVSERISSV

[3] = molecular target: 5-hydroxytryptamine receptor 7 (Homo sapiens, UniProt P34969)
Sequence of 5-hydroxytryptamine receptor 7 (P34969 whole entry): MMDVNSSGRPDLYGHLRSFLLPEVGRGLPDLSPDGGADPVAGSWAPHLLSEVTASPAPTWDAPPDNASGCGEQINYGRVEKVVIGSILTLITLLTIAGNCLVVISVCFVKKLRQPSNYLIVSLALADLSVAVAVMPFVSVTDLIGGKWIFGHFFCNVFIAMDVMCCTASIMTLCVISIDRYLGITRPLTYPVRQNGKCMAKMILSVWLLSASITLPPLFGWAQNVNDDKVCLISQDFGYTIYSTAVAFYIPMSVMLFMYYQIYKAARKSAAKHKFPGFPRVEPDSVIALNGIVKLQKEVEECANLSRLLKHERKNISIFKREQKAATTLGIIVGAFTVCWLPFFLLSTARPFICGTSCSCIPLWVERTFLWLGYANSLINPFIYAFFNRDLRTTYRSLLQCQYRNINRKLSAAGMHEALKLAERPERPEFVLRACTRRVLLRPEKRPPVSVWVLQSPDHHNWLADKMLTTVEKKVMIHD

[4] = molecular target: 5-hydroxytryptamine receptor 6 (Homo sapiens, UniProt P50406)
Sequence of 5-hydroxytryptamine receptor 6 (P50406 whole entry): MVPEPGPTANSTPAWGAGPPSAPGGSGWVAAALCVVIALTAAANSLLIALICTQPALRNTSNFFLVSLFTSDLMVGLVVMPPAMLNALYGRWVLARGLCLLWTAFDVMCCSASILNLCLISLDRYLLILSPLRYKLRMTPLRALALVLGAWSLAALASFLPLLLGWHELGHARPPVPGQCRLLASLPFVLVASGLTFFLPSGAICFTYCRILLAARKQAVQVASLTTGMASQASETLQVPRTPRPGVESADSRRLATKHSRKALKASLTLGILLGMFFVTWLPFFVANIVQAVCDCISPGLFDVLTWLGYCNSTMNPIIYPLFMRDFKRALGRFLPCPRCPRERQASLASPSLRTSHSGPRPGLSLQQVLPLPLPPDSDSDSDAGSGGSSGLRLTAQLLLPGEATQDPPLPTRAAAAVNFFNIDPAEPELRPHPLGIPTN

[5] = molecular target: 5-hydroxytryptamine receptor 5A (Homo sapiens, UniProt P47898)
Sequence of 5-hydroxytryptamine receptor 5A (P47898 whole entry): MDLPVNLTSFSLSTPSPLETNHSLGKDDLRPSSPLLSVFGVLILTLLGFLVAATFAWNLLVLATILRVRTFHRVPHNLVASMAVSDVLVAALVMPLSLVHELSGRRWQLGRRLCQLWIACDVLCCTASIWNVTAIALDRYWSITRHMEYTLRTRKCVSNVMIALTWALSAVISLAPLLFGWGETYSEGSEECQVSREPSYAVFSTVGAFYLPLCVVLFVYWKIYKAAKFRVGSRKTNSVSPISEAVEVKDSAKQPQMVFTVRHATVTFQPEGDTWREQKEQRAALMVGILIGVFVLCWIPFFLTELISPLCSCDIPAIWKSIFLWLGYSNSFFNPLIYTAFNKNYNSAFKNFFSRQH

Activity [1]: inactive
Ki [2]: 0.417 µM
Ki [3]: 7.07 µM
Ki [4]: 6.21 µM
Ki [5]: 3.3 µM
Structure (SMILES): CNC(=O)c1cc(Oc2ccc(NC(=O)Nc3ccc(Cl)c(C(F)(F)F)c3)cc2)ccn1 [SORAFENIB]
